From ChEMBL document CHEMBL1201862, “PubChem BioAssay data set” (2004)
Where “and” joins values, the source holds several entries; their conditions need not be identical. Equal values may be shown once. Where a name gives a salt, the structure may show the parent alone. Calls of active or inactive are those of the source.

Columns and labels:
[1] = tested on: H4; test: Luminescence Cell-Based Dose Response HTS to Identify Activators of 5'UTR Stem-Loop Driven Prion Protein mRNA Translation in H4 Neuroglioblastoma Cells. [Related pubchem assays: 1829 (Project Summary), 1814 (Primary HTS)]; assay type: functional; conditions: Homo sapiens
[2] = Luminescence Cell-Based Dose Confirmation HTS to Identify Activators of 5'UTR Stem-Loop Driven Alpha-Synuclein mRNA Translation in H4 Neuroglioblastoma Cells. [Related pubchem assays: 1829 (Project Summary), 1814 (Primary HTS)]; assay type: functional
[3] = Luminescence Cell-Based Dose Response HTS to Identify Activators of Luciferase Translation or Activity in H4 […] Cells. [Related pubchem assays: 1829 (Project Summary), 1814 (Primary HTS)]; assay type: functional
[4] = molecular target: T1, High affinity choline transporter 1 (Homo sapiens, UniProt Q9GZV3); test: human choline transporter blockers, potency – cell-based, 5-point CRC, membrane potential dye, dose response (AID 504840); assay type: functional
T1 sequence (Q9GZV3 whole entry): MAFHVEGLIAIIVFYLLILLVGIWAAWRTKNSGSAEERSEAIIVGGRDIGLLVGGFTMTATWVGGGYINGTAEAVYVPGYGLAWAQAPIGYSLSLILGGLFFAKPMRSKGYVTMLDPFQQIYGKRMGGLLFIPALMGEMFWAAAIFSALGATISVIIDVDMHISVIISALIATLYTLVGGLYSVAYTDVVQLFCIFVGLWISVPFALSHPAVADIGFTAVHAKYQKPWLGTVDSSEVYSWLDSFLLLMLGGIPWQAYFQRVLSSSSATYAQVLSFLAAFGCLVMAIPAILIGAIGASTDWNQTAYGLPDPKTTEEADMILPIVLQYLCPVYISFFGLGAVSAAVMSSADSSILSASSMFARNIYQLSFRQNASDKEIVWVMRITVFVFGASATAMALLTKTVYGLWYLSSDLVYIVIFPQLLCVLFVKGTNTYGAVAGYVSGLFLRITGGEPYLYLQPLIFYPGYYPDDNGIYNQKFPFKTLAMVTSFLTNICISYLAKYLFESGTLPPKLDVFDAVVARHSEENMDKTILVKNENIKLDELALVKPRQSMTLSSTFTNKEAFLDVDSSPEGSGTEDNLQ

[5] = molecular target: Cytochrome P450 2C9 (Homo sapiens, UniProt P11712)
[6] = molecular target: Cytochrome P450 2C19 (Homo sapiens, UniProt P33261); test: Cytochrome panel assay with activity outcomes. Panel member name: p450-cyp2c19 Compounds with AC50 equal or less than 10 uM are considered active; assay type: functional; conditions: read-out: AC50
[7] = molecular target: T2, Cytochrome P450 1A2 (Homo sapiens, UniProt P05177);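 note: PubChem cytochrome P450 panel assay, CYP1A2 panel member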
T2 sequence (P05177 whole entry): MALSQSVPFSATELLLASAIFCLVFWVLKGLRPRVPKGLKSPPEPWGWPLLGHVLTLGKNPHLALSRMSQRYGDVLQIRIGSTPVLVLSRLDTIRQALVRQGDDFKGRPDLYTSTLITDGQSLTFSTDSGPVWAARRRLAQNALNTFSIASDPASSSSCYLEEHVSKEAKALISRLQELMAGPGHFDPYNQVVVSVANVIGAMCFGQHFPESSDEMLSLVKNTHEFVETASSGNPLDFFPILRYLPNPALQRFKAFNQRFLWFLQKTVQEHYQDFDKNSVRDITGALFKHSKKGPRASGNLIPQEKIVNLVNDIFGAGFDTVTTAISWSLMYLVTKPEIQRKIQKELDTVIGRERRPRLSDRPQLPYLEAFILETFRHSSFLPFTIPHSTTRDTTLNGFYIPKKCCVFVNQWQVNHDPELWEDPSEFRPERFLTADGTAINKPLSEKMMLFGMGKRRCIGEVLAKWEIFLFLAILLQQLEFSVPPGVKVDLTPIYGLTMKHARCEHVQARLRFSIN

[8] = molecular target: Cytochrome P450 2D6 (Homo sapiens, UniProt P10635)
[9] = molecular target: T3, Polyadenylate-binding protein 1 (Homo sapiens, UniProt P11940); test: MLLE binding blockers, Cy5 peptide tracer – biochemical, fluorescence polarization, Cy5-PAM2 peptide, secondary, miRNA deadenylation inhibitor project, dose response (AID 602260); assay type: functional; conditions: read-out: IC50_Mean
[10] = molecular target: T3, Polyadenylate-binding protein 1; test: MLLE domain peptide-binding blockers, IC50 – biochemical, fluorescence polarization, FITC-PAM2 peptide, dose response (AID 602259); assay type: functional; conditions: read-out: IC50_Mean
[11] = molecular target: Cytochrome P450 3A4 (Homo sapiens, UniProt P08684);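 note: CYP3A4 tested as one member of a cytochrome P450 panel screen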
[12] = tested on: SN12K1; test: cells; assay type: functional; conditions: Homo sapiens
[13] = tested on: P388; test: cells; assay type: functional; conditions: Mus musculus
[14] = tested on: P388/ADR; test: cells; assay type: functional; conditions: Mus musculus

Sequence of Cytochrome P450 2D6 (P10635 whole entry): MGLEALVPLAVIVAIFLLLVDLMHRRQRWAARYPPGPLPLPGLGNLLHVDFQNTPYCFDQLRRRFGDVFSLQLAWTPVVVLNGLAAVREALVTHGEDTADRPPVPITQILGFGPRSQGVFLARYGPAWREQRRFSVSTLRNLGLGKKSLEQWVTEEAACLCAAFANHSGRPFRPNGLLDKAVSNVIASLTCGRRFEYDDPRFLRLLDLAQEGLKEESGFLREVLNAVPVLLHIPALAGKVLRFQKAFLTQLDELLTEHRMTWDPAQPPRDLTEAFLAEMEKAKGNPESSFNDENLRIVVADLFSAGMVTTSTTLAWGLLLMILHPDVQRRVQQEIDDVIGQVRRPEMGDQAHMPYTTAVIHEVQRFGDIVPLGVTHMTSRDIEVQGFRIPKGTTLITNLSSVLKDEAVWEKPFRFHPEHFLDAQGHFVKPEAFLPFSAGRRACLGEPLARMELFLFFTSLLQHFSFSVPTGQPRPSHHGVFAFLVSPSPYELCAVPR
Sequence of Cytochrome P450 2C9 (P11712 whole entry): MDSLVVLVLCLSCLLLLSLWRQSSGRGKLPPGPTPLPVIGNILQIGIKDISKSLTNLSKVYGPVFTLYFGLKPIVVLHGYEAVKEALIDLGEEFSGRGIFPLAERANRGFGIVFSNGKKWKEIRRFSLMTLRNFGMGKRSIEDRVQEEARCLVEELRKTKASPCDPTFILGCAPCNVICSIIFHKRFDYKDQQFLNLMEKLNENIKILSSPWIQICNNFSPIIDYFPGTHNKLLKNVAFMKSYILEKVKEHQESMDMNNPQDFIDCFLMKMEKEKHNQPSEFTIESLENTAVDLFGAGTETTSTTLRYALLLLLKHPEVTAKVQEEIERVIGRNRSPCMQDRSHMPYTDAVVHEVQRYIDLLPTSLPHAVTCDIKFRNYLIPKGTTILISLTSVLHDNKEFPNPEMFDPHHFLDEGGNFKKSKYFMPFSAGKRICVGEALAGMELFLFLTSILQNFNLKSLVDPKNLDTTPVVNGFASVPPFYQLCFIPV
Sequence of Cytochrome P450 2C19 (P33261 whole entry): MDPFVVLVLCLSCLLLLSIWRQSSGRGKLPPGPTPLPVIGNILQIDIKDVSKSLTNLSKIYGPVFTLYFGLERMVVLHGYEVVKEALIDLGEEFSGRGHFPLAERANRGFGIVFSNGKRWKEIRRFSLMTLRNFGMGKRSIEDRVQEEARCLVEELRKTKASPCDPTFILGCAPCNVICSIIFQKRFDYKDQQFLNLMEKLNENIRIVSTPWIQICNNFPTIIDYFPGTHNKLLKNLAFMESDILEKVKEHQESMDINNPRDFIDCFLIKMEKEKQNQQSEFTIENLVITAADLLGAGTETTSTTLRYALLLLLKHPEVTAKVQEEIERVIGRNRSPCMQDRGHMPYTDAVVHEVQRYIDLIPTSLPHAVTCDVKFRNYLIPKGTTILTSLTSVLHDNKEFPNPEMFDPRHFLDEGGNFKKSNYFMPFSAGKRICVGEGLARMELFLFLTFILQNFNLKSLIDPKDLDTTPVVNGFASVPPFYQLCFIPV
Sequence of Cytochrome P450 3A4 (P08684 whole entry): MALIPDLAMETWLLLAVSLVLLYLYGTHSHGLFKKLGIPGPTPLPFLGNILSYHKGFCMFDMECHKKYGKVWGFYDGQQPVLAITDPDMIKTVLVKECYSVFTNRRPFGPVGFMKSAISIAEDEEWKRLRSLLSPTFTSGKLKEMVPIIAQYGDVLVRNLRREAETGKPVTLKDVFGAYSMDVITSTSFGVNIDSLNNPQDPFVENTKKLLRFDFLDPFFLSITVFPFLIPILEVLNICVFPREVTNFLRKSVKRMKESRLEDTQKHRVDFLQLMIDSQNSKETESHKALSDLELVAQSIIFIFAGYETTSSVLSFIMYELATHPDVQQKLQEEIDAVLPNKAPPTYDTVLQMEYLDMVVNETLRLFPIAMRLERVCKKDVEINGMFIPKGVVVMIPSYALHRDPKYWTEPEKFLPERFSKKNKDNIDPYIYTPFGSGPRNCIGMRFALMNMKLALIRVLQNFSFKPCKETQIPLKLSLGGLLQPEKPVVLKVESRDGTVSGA
T3 sequence (P11940 whole entry, the tested form may be a part): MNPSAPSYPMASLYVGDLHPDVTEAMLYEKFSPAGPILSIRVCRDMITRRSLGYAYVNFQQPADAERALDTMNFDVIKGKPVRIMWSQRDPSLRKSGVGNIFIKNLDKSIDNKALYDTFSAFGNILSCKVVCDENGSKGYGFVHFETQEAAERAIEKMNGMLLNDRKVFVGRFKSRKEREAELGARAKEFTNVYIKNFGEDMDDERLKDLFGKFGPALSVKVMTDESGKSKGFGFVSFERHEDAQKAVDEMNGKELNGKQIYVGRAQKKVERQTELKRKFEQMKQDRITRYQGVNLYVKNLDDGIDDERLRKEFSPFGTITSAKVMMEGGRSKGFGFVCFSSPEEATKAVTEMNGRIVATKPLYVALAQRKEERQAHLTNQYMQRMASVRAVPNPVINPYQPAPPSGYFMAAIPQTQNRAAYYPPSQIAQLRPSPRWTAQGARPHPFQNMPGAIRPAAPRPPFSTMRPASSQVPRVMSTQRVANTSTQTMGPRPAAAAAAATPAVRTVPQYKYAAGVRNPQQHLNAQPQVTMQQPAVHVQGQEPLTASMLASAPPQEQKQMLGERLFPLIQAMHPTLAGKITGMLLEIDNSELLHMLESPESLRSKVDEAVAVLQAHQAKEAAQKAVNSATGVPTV

CC12CCC(C(=O)Nc3nc4ccccc4s3)(OC1=O)C2(C)C (stereo not drawn)
EC50 [1]: 12.7 µM (active)
EC50 [2]: > 60 µM (not active)
EC50 [3]: 18.9 µM (active)

C=CCNC(SCC(=O)c1ccc(Cl)cc1)=C1C(=O)N(C)C(=O)N(C)C1=O
EC50 [1]: 19.5 µM (active)
EC50 [2]: 24.9 µM (active)
EC50 [3]: > 120 µM (not active)

O=C(CN1C(=O)NC2(CCCc3ccccc32)C1=O)N1CCc2ccccc2C1 (stereo not drawn)
IC50 [4]: 13.5 µM (active)

O=C(Nc1nc2c(F)cc(F)cc2s1)C1CCN(C(=O)c2ccc(F)cc2)CC1
EC50 [1]: 26.8 µM (active)
EC50 [2]: 3.61 µM (active)
EC50 [3]: 8.78 µM (active)

CCOC(=O)C1CCN(c2c(Nc3ccc4c(c3)OCCO4)c(=O)c2=O)CC1
EC50 [1]: 9.87 µM (active)
EC50 [2]: 18.9 µM (active)
EC50 [3]: 18 µM (active)

CCn1c(Cc2ccccc2)nnc1SCC(=O)NC(C)(C)C
AC50 [5]: 12.6 µM (inconclusive)
AC50 [6]: 14.1 µM (inconclusive)

CCCCCC1CCC(C(=O)NN=C(S)NCC)CC1 (stereo not drawn)
AC50 [7]: 12.6 µM (inconclusive)
AC50 [8]: 15.8 µM (inconclusive)
AC50 [5]: 1.78 µM (inconclusive)

O=C(C[n+]1cccc2ccccc21)c1ccc(Br)cc1
IC50 [4]: 13.2 µM (active)

CN(Cc1ccccc1)S(=O)(=O)c1ccc(NC(=S)NC(=O)C(C)(C)C)cc1
IC50 [9]: > 66 µM (inactive)
IC50 [10]: > 66 µM (inactive)

COc1ccc(CNc2nc(-c3cccc(C#N)c3)nc3ccccc23)c(OC)c1
AC50 [8]: 3.98 µM (inconclusive)
AC50 [5]: 1 µM (inconclusive)
AC50 [6]: 1.58 µM (inconclusive)

O=C1CN=C(Nc2ccc(Cl)cc2)N1c1ccccc1
AC50 [7]: 14.1 µM (inconclusive)
AC50 [11]: 14.1 µM (inconclusive)
AC50 [8]: 20 µM (inconclusive)
AC50 [5]: 0.00562 µM (inconclusive)

NC(=O)CN1CCN(c2nc(-c3ccc(F)cc3)cs2)CC1
AC50 [11]: 14.1 µM (inconclusive)
AC50 [5]: 6.31 µM (inconclusive)

CC(C)NCCCOc1ccc(Cl)cc1Br
AC50 [5]: 4.47 µM (inconclusive)

CCCOC1CCCN(C(=O)CCc2nnc(Cc3cccc(C)c3)o2)C1 (stereo not drawn)
EC50 [1]: 16.5 µM (inconclusive)
EC50 [2]: 9.73 µM (active)
EC50 [3]: 16.5 µM (active)

COCCn1c(=O)c(-c2cc(F)cc(F)c2)nc2cnc(Oc3ccccc3)nc21
AC50 [11]: 20 µM (inconclusive)
AC50 [5]: 20 µM (inconclusive)
AC50 [6]: 39.8 µM (inconclusive)

C=CCSc1nc2c(c(=O)[nH]c(=O)n2C)n1C(C)C
IC50 [9]: > 66 µM (inactive)
IC50 [10]: > 66 µM (inactive)

O=C(NC(=S)N1C[C@H]2C[C@H](C1)c1cccc(=O)n1C2)c1ccc(Cl)cc1
IC50 [9]: > 66 µM (inactive)
IC50 [10]: > 66 µM (inactive)

O=C(Nc1cc(C(F)(F)F)ccc1Cl)c1cc2nc3c(c(C(F)(F)F)n2n1)CCCC3
EC50 [1]: 0.195 µM (active)
EC50 [2]: 1.53 µM (active)
EC50 [3]: 0.365 µM (active)

CCC(=O)Nc1ccc(Cl)c(NC(=S)NC(=O)COc2ccccc2)c1
IC50 [9]: > 66 µM (inactive)
IC50 [10]: > 66 µM (inactive)

S=C(N=Nc1ccccc1)NNc1ccccc1
EC50 [1]: 27.9 µM (inconclusive)
EC50 [2]: 14.4 µM (active)
EC50 [3]: 14.1 µM (active)

COC(=O)c1cc(OC)c(OC)cc1NC(=O)CSc1ccc(C)cc1
AC50 [5]: 7.94 µM (inconclusive)

COc1cccc(NC(=O)CCC(=O)Nc2ccc3nc(N4CCOCC4)cc(C)c3c2)c1
EC50 [1]: > 120 µM (not active)
EC50 [2]: > 120 µM (not active)
EC50 [3]: > 120 µM (not active)

Cc1cc(C)c[n+](-c2[n-]c(=O)sc2C=NNC(=O)c2cccnc2)c1
IC50 [9]: > 66 µM (inactive)
IC50 [10]: 59.7 µM (inactive)

CN(Cc1ccc(Cl)cc1)C(=O)COC(=O)CSc1ccc([N+](=O)[O-])cc1
IC50 [9]: > 66 µM (inactive)
IC50 [10]: > 66 µM (inactive)

CC1CCCCC1NC(=O)Cn1nnc(-c2ccc(Cl)cc2)n1 (stereo not drawn)
IC50 [4]: 6.61 µM (active)

CCNc1ncc2nc(-c3cccs3)c(=O)n(CCC#N)c2n1
AC50 [5]: 12.6 µM (inconclusive)

NC(=S)Nc1ccc(S(=O)(=O)c2ccc(NC(N)=S)cc2)cc1
IC50 [9]: > 66 µM (inactive)
IC50 [10]: > 66 µM (inactive)

CCOc1cc(N2CCOCC2)c(OCC)cc1NC(=O)Cc1ccccc1
IC50 [4]: 13.2 µM (active)

CC1=C(C(=O)N2CCCCCC2)C2(CCC(C)CC2)OC1=O (stereo not drawn)
AC50 [7]: 0.0158 µM (inconclusive)
AC50 [5]: 28.2 µM (inconclusive)

CC(C)c1ccc(S(=O)(=O)N2CCC(C(=O)NCC3(N(C)C)CCCCC3)CC2)cc1
IC50 [4]: 12.6 µM (active)

CC(=O)OCCOCn1cnn2c(=O)c(Br)c(C)nc12
IC50 [4]: 13.5 µM (active)

O=C1C=CC2OC(c3ccccc3)C(O)C2O1 (stereo not drawn)
GI50 [12]: 4.6 µM (inactive)
GI50 [13]: 1.56 µM (inactive)
GI50 [14]: 1.16 µM (inactive)

CSCSCC(CO)NC(=O)/C=C\c1c(C)[nH]c(=O)[nH]c1=O (stereo not drawn)
GI50 [12]: 11.1 µM (inactive)
GI50 [13]: 23.1 µM (inactive)
GI50 [14]: 57.4 µM (inactive)

COC(=O)[C@@H](O)[C@](O)(CCC(C)C)C(=O)O[C@@H]1C(OC)=C[C@]23CCCN2CCc2cc4c(cc2[C@H]13)OCO4
GI50 [12]: 0.682 µM (active)
GI50 [13]: 0.247 µM (active)
GI50 [14]: 2.29 µM (inactive)

N/C(=N\O)N/N=C\c1ccccc1O
GI50 [12]: 3.91 µM (inactive)
GI50 [13]: 1.66 µM (inactive)
GI50 [14]: 1.54 µM (inactive)

CC(=O)OC1C=C(C=O)C(O)(C=O)C2(C)CCCC(C)(C)C12 (stereo not drawn)
GI50 [12]: 1.36 µM (inactive)
GI50 [13]: 0.142 µM (active)
GI50 [14]: 0.322 µM (active)

O=C1C(Br)=CC2(C=C1Br)CCNC1=C2C2=NCCc3c[nH]c(c32)C1=O
GI50 [12]: 0.168 µM (active)
GI50 [13]: 0.0146 µM (active)
GI50 [14]: 0.0162 µM (active)

CCCCCCCCC1=CCC(CN(C)C)C1=O (stereo not drawn)
GI50 [12]: 17.6 µM (inactive)
GI50 [13]: 4.29 µM (inactive)
GI50 [14]: 2.92 µM (inactive)

Oc1ccc(Br)cc1/C=N/n1cnc2ccccc21
EC50 [1]: 17.9 µM (active)
EC50 [2]: 11 µM (active)
EC50 [3]: 15.8 µM (active)

C/C(=N/NC(=O)c1ccoc1C)c1ccc(NC(=O)c2ccncc2)cc1
EC50 [1]: 0.102 µM (active)
EC50 [2]: 23.9 µM (active)
EC50 [3]: 0.148 µM (inconclusive)

CCSc1nc(COC(=O)NC)c(COC(=O)NC)n1C
GI50 [12]: > 100 µM (inactive)
GI50 [13]: 67.6 µM (inactive)
GI50 [14]: > 100 µM (inactive)

CCN(CCCl)CCNc1c2ccccc2nc2ccc(OC)cc12
GI50 [12]: 0.647 µM (active)
GI50 [13]: 0.0757 µM (active)
GI50 [14]: 0.29 µM (active)

CC(=O)N(C)c1ccc(Nc2cc(C)nc3ccc4nc[nH]c4c23)cc1 [ACODAZOLE HYDROCHLORIDE]
GI50 [12]: 4.9 µM (inactive)
GI50 [13]: 4.5 µM (inactive)
GI50 [14]: 37 µM (inactive)

CNC(=O)CSP(=S)(OC)OC [DIMETHOATE]
IC50 [9]: > 66 µM (inactive)
IC50 [10]: > 66 µM (inactive)

CC(C)=CCc1c(O)ccc2ccc(=O)oc12 [OSTHENOL]
GI50 [12]: 59.7 µM (inactive)
GI50 [13]: 42.7 µM (inactive)
GI50 [14]: 50 µM (inactive)

NNCCc1ccccc1 [PHENELZINE]
AC50 [5]: 158 nM (inconclusive) and 10 µM (inconclusive)
